According to ChEMBL document CHEMBL3885881, “DrugMatrix”:

Species: Rattus norvegicus
Test: DrugMatrix - Regimen: Daily Repeat
Assay type: toxicity, organism-based, Sprague-Dawley
Set-up: regimen Daily Repeat, gender Male, age 6-8 weeks
Conditions: in vivo, po, route oral GAVAGE, […]; for ABSOLUTE BASOPHIL / BASOPHIL / NUCLEATED RED BLOOD CELLS / ABSOLUTE EOSINOPHIL / ABSOLUTE LYMPHOCYTE / ABSOLUTE MONOCYTE / ABSOLUTE SEGMENTED NEUTROPHIL / EOSINOPHIL / ERYTHROCYTE COUNT / HEMATOCRIT / LEUKOCYTE COUNT / MEAN CORPUSCULAR HEMOGLOBIN / MEAN CORPUSCULAR HEMOGLOBIN CONCENTRATION / MEAN CORPUSCULAR VOLUME / MONOCYTE / NEUTROPHIL / PLATELET COUNT: tissue Blood; for TOTAL BILIRUBIN / ALANINE AMINOTRANSFERASE / ALBUMIN / ALKALINE PHOSPHATASE / ASPARTATE AMINOTRANSFERASE / BLOOD UREA NITROGEN / CHLORIDE / CHOLESTEROL / CREATINE PHOSPHOKINASE / CREATININE / GLUCOSE / LACTATE DEHYDROGENASE / LIPASE / PHOSPHORUS / POTASSIUM / URIC ACID: tissue Plasma
[1] = 0 mg/kg, 72 h, dose level Control, time 3 day
[2] = 0 mg/kg, 120 h, dose level Control, time 5 day
[3] = 1 mg/kg, 72 h, dose level Low, time 3 day
[4] = 1 mg/kg, 120 h, dose level Low, time 5 day
[5] = 150 mg/kg, 72 h, dose level M1, time 3 day
[6] = 300 mg/kg, 72 h, dose level High, time 3 day
[7] = 300 mg/kg, 120 h, dose level High, time 5 day

SMILES: C[C@@H]1C[C@H]2[C@@H]3CCC4=CC(=O)C=C[C@]4(C)[C@@]3(F)[C@@H](O)C[C@]2(C)[C@@]1(O)C(=O)CO [DEXAMETHASONE]
- ABSOLUTE BASOPHIL [1]: 0 CELLS/uL
- BASOPHIL [1]: 0%
- NUCLEATED RED BLOOD CELLS [1]: 0 /100WBC
- TOTAL BILIRUBIN [1]: 0.2 mg/dL
- ABSOLUTE BASOPHIL [2]: 0 CELLS/uL
- BASOPHIL [2]: 0%
- ABSOLUTE BASOPHIL [3]: 0 CELLS/uL
- ABSOLUTE EOSINOPHIL [3]: 0 CELLS/uL
- ABSOLUTE LYMPHOCYTE [3]: 386.33 CELLS/uL
- ABSOLUTE MONOCYTE [3]: 54.33 CELLS/uL
- ABSOLUTE SEGMENTED NEUTROPHIL [3]: 12226 CELLS/uL
- BASOPHIL [3]: 0%
- EOSINOPHIL [3]: 0%
- ERYTHROCYTE COUNT [3]: 4.89 x10E6/uL
- HEMATOCRIT [3]: 30.93%
- LEUKOCYTE COUNT [3]: 12.67 x10E3/uL
- MEAN CORPUSCULAR HEMOGLOBIN [3]: 25.53 pg
- MEAN CORPUSCULAR HEMOGLOBIN CONCENTRATION [3]: 40.3 G/DL
- MEAN CORPUSCULAR VOLUME [3]: 63.33 fL
- MONOCYTE [3]: 0.33%
- NEUTROPHIL [3]: 96%
- NUCLEATED RED BLOOD CELLS [3]: 1 /100WBC
- PLATELET COUNT [3]: 1088 x10E3/uL
- ALANINE AMINOTRANSFERASE [3]: 118.33 u/L
- ALBUMIN [3]: 4.1 G/DL
- ALKALINE PHOSPHATASE [3]: 632 u/L
- ASPARTATE AMINOTRANSFERASE [3]: 203 u/L
- BLOOD UREA NITROGEN [3]: 28.33 mg/dL
- CHLORIDE [3]: 95 MEQ/L
- CHOLESTEROL [3]: 76.33 mg/dL
- CREATINE PHOSPHOKINASE [3]: 789 u/L
- CREATININE [3]: 0.16 mg/dL
- GLUCOSE [3]: 441 mg/dL
- LACTATE DEHYDROGENASE [3]: 205.67 u/L
- LIPASE [3]: 45.67 u/L
- PHOSPHORUS [3]: 10.57 mg/dL
- POTASSIUM [3]: 5.98 MEQ/L
- TOTAL BILIRUBIN [3]: 0.33 mg/dL
- URIC ACID [3]: 1.2 mg/dL
- ABSOLUTE BASOPHIL [4]: 0 CELLS/uL
- ABSOLUTE EOSINOPHIL [4]: 0 CELLS/uL
- ABSOLUTE LYMPHOCYTE [4]: 716 CELLS/uL
- ABSOLUTE MONOCYTE [4]: 233 CELLS/uL
- ABSOLUTE SEGMENTED NEUTROPHIL [4]: 18184.33 CELLS/uL
- BASOPHIL [4]: 0%
- EOSINOPHIL [4]: 0%
- ERYTHROCYTE COUNT [4]: 3.43 x10E6/uL
- HEMATOCRIT [4]: 25.35%
- LEUKOCYTE COUNT [4]: 19.13 x10E3/uL
- MEAN CORPUSCULAR HEMOGLOBIN [4]: 24.9 pg
- MEAN CORPUSCULAR HEMOGLOBIN CONCENTRATION [4]: 40.75 G/DL
- MEAN CORPUSCULAR VOLUME [4]: 59.67 fL
- MONOCYTE [4]: 1.33%
- NEUTROPHIL [4]: 94%
- NUCLEATED RED BLOOD CELLS [4]: 3.33 /100WBC
- PLATELET COUNT [4]: 832.67 x10E3/uL
- ALANINE AMINOTRANSFERASE [4]: 247 u/L
- ALBUMIN [4]: 3.87 G/DL
- ALKALINE PHOSPHATASE [4]: 684.67 u/L
- ASPARTATE AMINOTRANSFERASE [4]: 267.67 u/L
- BLOOD UREA NITROGEN [4]: 20 mg/dL
- CHLORIDE [4]: 95 MEQ/L
- CHOLESTEROL [4]: 149.67 mg/dL
- CREATINE PHOSPHOKINASE [4]: 312.33 u/L
- CREATININE [4]: 0.11 mg/dL
- GLUCOSE [4]: 438.67 mg/dL
- LACTATE DEHYDROGENASE [4]: 287.33 u/L
- LIPASE [4]: 21.67 u/L
- PHOSPHORUS [4]: 9.83 mg/dL
- POTASSIUM [4]: 5.94 MEQ/L
- TOTAL BILIRUBIN [4]: 0.25 mg/dL
- URIC ACID [4]: 1.43 mg/dL
- ABSOLUTE BASOPHIL [5]: 0 CELLS/uL
- ABSOLUTE EOSINOPHIL [5]: 0 CELLS/uL
- ABSOLUTE LYMPHOCYTE [5]: 851.67 CELLS/uL
- ABSOLUTE MONOCYTE [5]: 0 CELLS/uL
- ABSOLUTE SEGMENTED NEUTROPHIL [5]: 8381.67 CELLS/uL
- BASOPHIL [5]: 0%
- EOSINOPHIL [5]: 0%
- ERYTHROCYTE COUNT [5]: 3.49 x10E6/uL
- HEMATOCRIT [5]: 22.2%
- LEUKOCYTE COUNT [5]: 9.23 x10E3/uL
- MEAN CORPUSCULAR HEMOGLOBIN [5]: 24.87 pg
- MEAN CORPUSCULAR HEMOGLOBIN CONCENTRATION [5]: 39.17 G/DL
- MEAN CORPUSCULAR VOLUME [5]: 63.47 fL
- MONOCYTE [5]: 0%
- NEUTROPHIL [5]: 90.33%
- NUCLEATED RED BLOOD CELLS [5]: 0 /100WBC
- PLATELET COUNT [5]: 661.67 x10E3/uL
- ALANINE AMINOTRANSFERASE [5]: 222.67 u/L
- ALBUMIN [5]: 4.03 G/DL
- ALKALINE PHOSPHATASE [5]: 224 u/L
- ASPARTATE AMINOTRANSFERASE [5]: 153.67 u/L
- BLOOD UREA NITROGEN [5]: 40.67 mg/dL
- CHLORIDE [5]: 88.33 MEQ/L
- CREATINE PHOSPHOKINASE [5]: 139 u/L
- CREATININE [5]: 0.28 mg/dL
- GLUCOSE [5]: 361.33 mg/dL
- LACTATE DEHYDROGENASE [5]: 175.33 u/L
- LIPASE [5]: 12 u/L
- PHOSPHORUS [5]: 7.7 mg/dL
- POTASSIUM [5]: 3.29 MEQ/L
- TOTAL BILIRUBIN [5]: 0.27 mg/dL
- URIC ACID [5]: 0.6 mg/dL
- ABSOLUTE BASOPHIL [6]: 0 CELLS/uL
- ABSOLUTE EOSINOPHIL [6]: 101.33 CELLS/uL
- ABSOLUTE LYMPHOCYTE [6]: 370.67 CELLS/uL
- ABSOLUTE MONOCYTE [6]: 0 CELLS/uL
- ABSOLUTE SEGMENTED NEUTROPHIL [6]: 13461.33 CELLS/uL
- BASOPHIL [6]: 0%
- EOSINOPHIL [6]: 0.67%
- ERYTHROCYTE COUNT [6]: 4.56 x10E6/uL
- HEMATOCRIT [6]: 29.6%
- LEUKOCYTE COUNT [6]: 13.93 x10E3/uL
- MEAN CORPUSCULAR HEMOGLOBIN [6]: 26.77 pg
- MEAN CORPUSCULAR HEMOGLOBIN CONCENTRATION [6]: 41.3 G/DL
- MEAN CORPUSCULAR VOLUME [6]: 64.73 fL
- MONOCYTE [6]: 0%
- NEUTROPHIL [6]: 96.67%
- NUCLEATED RED BLOOD CELLS [6]: 3 /100WBC
- PLATELET COUNT [6]: 922.33 x10E3/uL
- ALANINE AMINOTRANSFERASE [6]: 191 u/L
- ALBUMIN [6]: 3.07 G/DL
- ALKALINE PHOSPHATASE [6]: 263 u/L
- ASPARTATE AMINOTRANSFERASE [6]: 136.33 u/L
- BLOOD UREA NITROGEN [6]: 17 mg/dL
- CHLORIDE [6]: 90.33 MEQ/L
- CHOLESTEROL [6]: 231 mg/dL
- CREATINE PHOSPHOKINASE [6]: 714.67 u/L
- CREATININE [6]: 0.13 mg/dL
- GLUCOSE [6]: 404.67 mg/dL
- LACTATE DEHYDROGENASE [6]: 193.33 u/L
- LIPASE [6]: 55 u/L
- PHOSPHORUS [6]: 10.2 mg/dL
- POTASSIUM [6]: 3.86 MEQ/L
- TOTAL BILIRUBIN [6]: 1.1 mg/dL
- URIC ACID [6]: 1.1 mg/dL
- ABSOLUTE BASOPHIL [7]: 0 CELLS/uL
- ABSOLUTE EOSINOPHIL [7]: 0 CELLS/uL
- ABSOLUTE LYMPHOCYTE [7]: 332 CELLS/uL
- ABSOLUTE MONOCYTE [7]: 0 CELLS/uL
- ABSOLUTE SEGMENTED NEUTROPHIL [7]: 16268 CELLS/uL
- BASOPHIL [7]: 0%
- EOSINOPHIL [7]: 0%
- ERYTHROCYTE COUNT [7]: 2.89 x10E6/uL
- HEMATOCRIT [7]: 17%
- LEUKOCYTE COUNT [7]: 16.6 x10E3/uL
- MEAN CORPUSCULAR HEMOGLOBIN [7]: 25.3 pg
- MEAN CORPUSCULAR HEMOGLOBIN CONCENTRATION [7]: 42.9 G/DL
- MEAN CORPUSCULAR VOLUME [7]: 58.9 fL
- MONOCYTE [7]: 0%
- NEUTROPHIL [7]: 98%
- NUCLEATED RED BLOOD CELLS [7]: 0 /100WBC
- PLATELET COUNT [7]: 777 x10E3/uL
- ALANINE AMINOTRANSFERASE [7]: 1291 u/L
- ALBUMIN [7]: 3.2 G/DL
- ALKALINE PHOSPHATASE [7]: 579 u/L
- ASPARTATE AMINOTRANSFERASE [7]: 470 u/L
- BLOOD UREA NITROGEN [7]: 26 mg/dL
- CHLORIDE [7]: 87 MEQ/L
- CHOLESTEROL [7]: 201 mg/dL
- CREATINE PHOSPHOKINASE [7]: 1188 u/L
- CREATININE [7]: 0.1 mg/dL
- GLUCOSE [7]: 443 mg/dL
- LACTATE DEHYDROGENASE [7]: 750 u/L
- LIPASE [7]: 9 u/L
- PHOSPHORUS [7]: 10.7 mg/dL
- POTASSIUM [7]: 2.68 MEQ/L
- TOTAL BILIRUBIN [7]: 0.8 mg/dL
- URIC ACID [7]: 0.7 mg/dL
